Assay results reported in patent US8063071B2 (GlaxoSmithKline, LLC, priority 2007, dated 2011).
Structures can show the parent of a compound that is named as a salt.

Experiments:
[1] = target: T1, Recombinant human IKKβ (residues 1-737) (Homo sapiens, UniProt O14920); test: IKK2 assay (TR-FRET); type: biochemical; conditions: ATP 1 μM final, read-out: pIC50 against IKK2 (converted)
T1 construct: Recombinant human IKKβ (residues 1-737); GST (C); made in house
T1 sequence (O14920 1-737): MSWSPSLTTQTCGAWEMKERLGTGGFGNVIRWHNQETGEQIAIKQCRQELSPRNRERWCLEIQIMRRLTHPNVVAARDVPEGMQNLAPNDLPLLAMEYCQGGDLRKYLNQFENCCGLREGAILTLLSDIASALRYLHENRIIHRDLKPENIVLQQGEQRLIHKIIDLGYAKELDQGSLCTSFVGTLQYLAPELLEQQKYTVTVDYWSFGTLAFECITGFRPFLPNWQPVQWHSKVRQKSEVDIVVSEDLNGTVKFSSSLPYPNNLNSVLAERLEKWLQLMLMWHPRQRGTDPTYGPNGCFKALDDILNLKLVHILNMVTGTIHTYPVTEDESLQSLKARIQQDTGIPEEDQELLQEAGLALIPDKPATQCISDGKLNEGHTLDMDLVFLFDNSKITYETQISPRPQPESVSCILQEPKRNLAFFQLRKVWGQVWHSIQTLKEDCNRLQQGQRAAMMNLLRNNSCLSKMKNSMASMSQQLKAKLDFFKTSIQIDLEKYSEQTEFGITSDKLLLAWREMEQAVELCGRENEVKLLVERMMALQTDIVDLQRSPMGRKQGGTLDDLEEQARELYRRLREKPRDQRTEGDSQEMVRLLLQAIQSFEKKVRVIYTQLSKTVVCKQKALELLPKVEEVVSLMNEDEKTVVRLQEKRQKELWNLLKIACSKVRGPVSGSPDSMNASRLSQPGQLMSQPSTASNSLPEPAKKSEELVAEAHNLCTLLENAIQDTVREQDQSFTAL
In short: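 TR-FRET readout (665 nm over 620 nm Eu reference) of GST-IB Ser32/36 phosphorylation after 60 min detection. Reaction: 1 μM ATP, 25 nM substrate, 0.5-5 nM GST-fused IKKβ 1-737 from baculovirus, pH 7.4 HEPES buffer, 1.7% DMSO, 15 min room temperature, EDTA-terminated.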

[2] = system: human monocyte stimulated cytokine production (TNF-α); test: Monocyte assay (LPS-stimulated TNF-α production); type: cell-based; conditions: for IC50: 24 h, 200 ng/mL LPS, TNF-α by ELISA; for inhibition at 0.3 µM: read-out: inhibition at 300 nM in the monocyte assay
In short: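 TNF-α release was measured by ELISA after 24 hrs at 37 C. Cells were stimulated with 200 ng/mL E. coli LPS, with compound added 30 minutes beforehand (0.1% DMSO vehicle). Cells were Ficoll/MACS-isolated CD14+ human monocytes adhered at 1×10^6 cells/mL, and viability was checked by trypan blue.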

SMILES | IC50 [1] | IC50 [2] | inhibition at 0.3 µM [2]
CCS(=O)(=O)N1CCC(c2c[nH]c3c(C(N)=O)cc(-c4cccc(C(C)NC5CCC5)c4)cc23)CC1 (centres unmarked) [Example 295, 5-{3-[1-(cyclobutylamino)ethyl]phenyl}-3-[1-(ethylsulfonyl)-4-piperidinyl]-1H-indole-7-carboxamide trifluoroacetate] | ≤ 10 µM | ≤ 1.5 µM | –
CCS(=O)(=O)N1CCC(c2c[nH]c3c(C(N)=O)cc(-c4cccc(CNS(=O)(=O)c5cccc6nonc56)c4)cc23)CC1 [Example 385, 5-(3-{[(2,1,3-benzoxadiazol-4-ylsulfonyl)amino]methyl}phenyl)-3-[1-(ethylsulfonyl)-4-piperidinyl]-1H-indole-7-carboxamide] | ≤ 10 µM | > 1 µM | –
CCS(=O)(=O)N1CCC(c2c[nH]c3c(C(N)=O)cc(-c4cc(C#N)cc(CNCC(C)C)c4)cc23)CC1 [Example 357, 5-(3-cyano-5-{[(2-methylpropyl)amino]methyl}phenyl)-3-[1-(ethylsulfonyl)-4-piperidinyl]-1H-indole-7-carboxamide trifluoroacetate] | ≤ 10 µM | ≤ 1.5 µM | –
CCS(=O)(=O)N1CCC(c2c[nH]c3c(C(N)=O)cc(-c4cc(CN5CCOCC5)c5c(c4)OCC5)cc23)CC1 [Example 60, 3-[1-(ethylsulfonyl)-4-piperidinyl]-5-[4-(4-morpholinylmethyl)-2,3-dihydro-1-benzofuran-6-yl]-1H-indole-7-carboxamide] | ≤ 10 µM | – | 0 to 60%
CCS(=O)(=O)N1CCC(c2c[nH]c3c(C(N)=O)cc(-c4ccc(CN(C)C)s4)cc23)CC1 [Example 240, 5-{5-[(dimethylamino)methyl]-2-thienyl}-3-[1-(ethylsulfonyl)-4-piperidinyl]-1H-indole-7-carboxamide trifluoroacetate] | ≤ 10 µM | ≤ 1.5 µM | –
CCS(=O)(=O)N1CCC(c2c[nH]c3c(C(N)=O)cc(-c4csc(CN5CCCC5)n4)cc23)CC1 [Example 353, 3-[1-(ethylsulfonyl)-4-piperidinyl]-5-[2-(1-pyrrolidinylmethyl)-1,3-thiazol-4-yl]-1H-indole-7-carboxamide] | ≤ 10 µM | ≤ 1.5 µM | 0 to 60%
CCC(C)N(C)Cc1cc(-c2cc(C(N)=O)c3[nH]cc(C4CCN(S(=O)(=O)CC)CC4)c3c2)cs1 (centres unmarked) [Example 402, 3-[1-(ethylsulfonyl)-4-piperidinyl]-5-(5-{[methyl(1-methylpropyl)amino]methyl}-3-thienyl)-1H-indole-7-carboxamide] | ≤ 10 µM | ≤ 1.5 µM | –
CCS(=O)(=O)N1CCC(c2c[nH]c3c(C(N)=O)cc(-c4ccc(OC)c(CN5CCCC5)c4)cc23)CC1 [Example 262, 3-[1-(ethylsulfonyl)-4-piperidinyl]-5-[4-(methyloxy)-3-(1-pyrrolidinylmethyl)phenyl]-1H-indole-7-carboxamide trifluoroacetate] | ≤ 10 µM | > 1 µM | –
CCS(=O)(=O)N1CCC(c2c[nH]c3c(C(N)=O)cc(-c4cnn(CCNC5CCC5)c4)cc23)CC1 [Example 257, 5-{1-[2-(cyclobutylamino)ethyl]-1H-pyrazol-4-yl}-3-[1-(ethylsulfonyl)-4-piperidinyl]-1H-indole-7-carboxamide trifluoroacetate] | ≤ 10 µM | > 1 µM | –
CCS(=O)(=O)N1CCC(c2c[nH]c3c(C(N)=O)cc(-c4ccc(CN5CCOCC5)cc4)cc23)CC1 [Example 29, 3-[1-(ethylsulfonyl)-4-piperidinyl]-5-[4-(4-morpholinylmethyl)phenyl]-1H-indole-7-carboxamide] | ≤ 10 µM | ≤ 1.5 µM | –
CCS(=O)(=O)N1CCC(c2c[nH]c3c(C(N)=O)cc(-c4csc(CN5CCCC5C(C)(C)C)c4)cc23)CC1 (centres unmarked) [Example 91, 5-(5-{[2-(1,1-dimethylethyl)-1-pyrrolidinyl]methyl}-3-thienyl)-3-[1-(ethylsulfonyl)-4-piperidinyl]-1H-indole-7-carboxamide trifluoroacetate] | ≤ 10 µM | – | 0 to 60%
CCS(=O)(=O)N1CCC(c2c[nH]c3c(C(N)=O)cc(-c4csc(CNCC(F)(F)F)n4)cc23)CC1 [Example 40, 3-[1-(ethylsulfonyl)-4-piperidinyl]-5-(2-{[(2,2,2-trifluoroethyl)amino]methyl}-1,3-thiazol-4-yl)-1H-indole-7-carboxamide trifluoroacetate] | ≤ 10 µM | – | 0 to 60%
CCS(=O)(=O)N1CCC(c2c[nH]c3c(C(N)=O)cc(-c4csc(CNC5CCCC5)c4)cc23)CC1 [Example 114, 5-{5-[(cyclopentylamino)methyl]-3-thienyl}-3-[1-(ethylsulfonyl)-4-piperidinyl]-1H-indole-7-carboxamide trifluoroacetate] | ≤ 10 µM | ≤ 1.5 µM | –
CCS(=O)(=O)N1CCC(c2c[nH]c3c(C(N)=O)cc(-c4csc(CN(C)CCO)c4)cc23)CC1 [Example 75, 3-[1-(ethylsulfonyl)-4-piperidinyl]-5-(5-{[(2-hydroxyethyl)(methyl)amino]methyl}-3-thienyl)-1H-indole-7-carboxamide trifluoroacetate] | ≤ 10 µM | ≤ 1.5 µM | –
CCS(=O)(=O)N1CCC(c2c[nH]c3c(C(N)=O)cc(-c4cccc(CNC5CCCC5)c4)cc23)CC1 [Example 15, 5-{3-[(cyclopentylamino)methyl]phenyl}-3-[1-(ethylsulfonyl)-4-piperidinyl]-1H-indole-7-carboxamide] | ≤ 10 µM | > 1 µM | –
CC(C)S(=O)(=O)N1CCC(c2c[nH]c3c(C(N)=O)cc(-c4csc(CN(C)C)c4)cc23)CC1 [Example 220, 5-{5-[(dimethylamino)methyl]-3-thienyl}-3-{1-[(1-methylethyl)sulfonyl]-4-piperidinyl}-1H-indole-7-carboxamide trifluoroacetate] | ≤ 10 µM | ≤ 1.5 µM | –
CCS(=O)(=O)N1CCC(c2c[nH]c3c(C(N)=O)cc(-c4csc(CN(C)CC5CC5)c4)cc23)CC1 [Example 409, 5-(5-{[(cyclopropylmethyl)(methyl)amino]methyl}-3-thienyl)-3-[1-(ethylsulfonyl)-4-piperidinyl]-1H-indole-7-carboxamide trifluoroacetate] | ≤ 10 µM | ≤ 1.5 µM | –
CCS(=O)(=O)N1CCC(c2c[nH]c3c(C(N)=O)cc(-c4cc(CNCC(C)C)cs4)cc23)CC1 [Example 210, 3-[1-(ethylsulfonyl)-4-piperidinyl]-5-(4-{[(2-methylpropyl)amino]methyl}-2-thienyl)-1H-indole-7-carboxamide trifluoroacetate] | ≤ 10 µM | ≤ 1.5 µM | –
C=CCN(C)Cc1cc(-c2cc(C(N)=O)c3[nH]cc(C4CCN(S(=O)(=O)CC)CC4)c3c2)cs1 [Example 399, 3-[1-(ethylsulfonyl)-4-piperidinyl]-5-(5-{[methyl(2-propen-1-yl)amino]methyl}-3-thienyl)-1H-indole-7-carboxamide] | ≤ 10 µM | ≤ 1.5 µM | –
CCS(=O)(=O)N1CCC(c2c[nH]c3c(C(N)=O)cc(-c4csc(CNC5CCC5)c4)cc23)CC1 [Example 110, 5-{5-[(cyclobutylamino)methyl]-3-thienyl}-3-[1-(ethylsulfonyl)-4-piperidinyl]-1H-indole-7-carboxamide trifluoroacetate] | ≤ 10 µM | ≤ 1.5 µM | –
